A short description of the experiment: In vitro inhibition of binding towards of human wild-type p53 to GST-hdm2.

Square brackets hold non-standard residues; d marks the D form. Peptide text beside a SMILES is read from it. Trp(6-Cl) = N[C@@H](Cc1c[nH]c2cc(Cl)ccc12)C(=O)O; Pmp = N[C@@H](Cc1ccc(CP(=O)(O)O)cc1)C(=O)O; Ac3c = NC1(C(=O)O)CC1; Aib = CC(C)(N)C(=O)O

As for `CSCC[C@H](NC(=O)[C@H](Cc1ccccc1)NC(C)=O)C(=O)NC(C)(C)C(=O)N[C@@H](Cc1ccc(CP(=O)(O)O)cc1)C(=O)N[C@@H](Cc1c[nH]c2cc(Cl)ccc12)C(=O)N[C@@H](CCC(=O)O)C(=O)NC1(C(=O)N[C@@H](CC(C)C)C(N)=O)CC1` (Ac-FM[Aib][Pmp][Trp(6-Cl)]E[Ac3c]L-NH2), the IC50 (usually the point on the concentration scale where inhibition reaches its midpoint) was determined as 5 nM.
As to `CSCC[C@H](NC(=O)[C@H](Cc1ccccc1)NC(C)=O)C(=O)NC(C)(C)C(=O)N[C@@H](Cc1ccc(CP(=O)(O)O)cc1)C(=O)N[C@@H](C)C(=O)N[C@@H](CCC(=O)O)C(=O)NC1(C(=O)N[C@@H](CC(C)C)C(N)=O)CC1` (Ac-FM[Aib][Pmp]AE[Ac3c]L-NH2), the IC50 is above 2000 nM.
